Measured values: US20100136137A1, “THERAPEUTIC COMBINATION OF A PANHER/VEGFR2 KINASE INHIBITOR AND A PLATINUM COMPOUND” (Bristol-Meyers Squibb Company, priority 2006, published 2010)

Experiments:
Assay type in all cases: cell-based
[1] = test system: NSCLC cell lines; assay: Anti-proliferative/pro-apoptotic effects in NSCLC cell lines with different EGFR and p53 mutation status
Experimental: (§1) Non-Small Cell Lung Cancer cell lines with different EGFR and p53 mutation status were used. Variable doses of Compound I or cisplatin were used to induce death or proliferative death of the cells. A549 cells were transfected with siRNAs, and transfected cells were cultured for 48 hours prior to the administration of the drugs to attain the maximal down-regulation of the target proteins.

[2] = test system: NSCLC cell lines; assay: Apoptosis-associated changes by DiOC63 (Δψm) and propidium iodide (viability) staining
Description: The fluorochromes, 3,3′-dihexyloxacarbocyanine iodide (DiOC63) and propidium iodide (PI) were employed to determine different apoptosis-associated changes. DiOC63 was used for the loss of mitochondrial transmembrane potential (Δψm) and PI was used for the loss of viability.

[3] = test system: A549 cells; assay: siRNA knockdown of apoptosis pathway components in A549 cells, Compound I induced cell death
Experimental: as §1

SMILES: COc1cccc(Nc2ncnn3ccc(CN4CC[C@@H](N)[C@H](O)C4)c23)c1 [Compound I, 4-Amino-1-[[4-[(3-methoxyphenyl)amino]pyrrolo [2,1-f][1,2,4]triazin-5-yl]methyl]-(3R,4R)-3-piperidinol]
- order of sensitivity of cell lines ([1]; NCI-H1975, NCI-H1650, NCIH1299, A549): NCI-H1975>>NCI-H1650=NCIH1299>A549
- anti-proliferative/pro-apoptotic effects ([1]; all NSCLC cell lines tested, including wild-type EGFR and T790M mutant): induced anti-proliferative/pro-apoptotic effects in all NSCLC cell lines tested
- dissipation of Δψm (marker of early apoptosis) ([2]; DiOC63 staining): induced dissipation of Δψm
- incorporation of PI (marker of late apoptosis, loss of viability) ([2]; propidium iodide staining): incorporation of PI
- effect of pan-caspase inhibitor z-VAD.fmk on the loss of viability ([2]; with z-VAD.fmk): no effect
- effect of pan-caspase inhibitor z-VAD.fmk on the reduction of the Δψm ([2]; with z-VAD.fmk): only a minor protective effect
- effect of caspase-2 down-regulation on Compound I induced cell-death ([3]; 24 and 48 hours): limited protection against Compound I induced cell-death at 24 hours, but not at 48 hours
- effect of Bcl-2 down-regulation, alone or in combination with Bcl-XL, on the effect of Compound I ([3]; both 24 and 48 hours): strongly sensitized A549 cells
